US9309263B2, “Fused multi-cyclic sulfone compounds as inhibitors of beta-secretase and methods of use thereof” (AMGEN INC., priority 2013, dated 2016)
Like-named read-outs stand apart in the source and are kept apart here.

Legend:
[1] = system: Aβ 40 in conditioned medium of cells stably expressing Amyloid Precursor Protein (APP); test: In vitro BACE cell-based assay (Aβ 40 sandwich ELISA)
Outline: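 APP-expressing cells, 24 h pre-culture in DMEM/10% FBS, treated 24 h with 10-point compound dilutions from 100 or 10 μM top, 0.1% DMSO final. Secreted Aβ40 quantified by sandwich ELISA (pAb40 capture, biotinylated 6E10 detection, europium TRF); IC50 from percent inhibition versus concentration.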

[2] = system: Abeta 40; test: In vivo inhibition of beta-secretase: Abeta 40 reduction in CSF and brain of the rat; conditions: 10 mpk (unless otherwise noted), after 4 hrs
Excerpt: In Vivo Inhibition of Beta-Secretase
Several animal models, including mouse, rat, dog, and monkey, may be used to screen for inhibition of beta-secretase activity in vivo following administration of a test compound sample. Animals used in this invention can be wild type, transgenic, or gene knockout animals. For example, the Tg2576 mouse model, prepared and conducted as described in Hsiao et al., 1996, Science 274, 99-102, and other non-transgenic or gene knockout animals are useful to analyze in vivo inhibition of Amyloid beta peptide (Abeta) production in the presence of inhibitory test compounds. Generally, 2 to 18 month old Tg2576 mice, gene knockout mice or non-transgenic animals are administered test compounds formulated in vehicles, such as cyclodextran, phosphate buffers, hydroxypropyl methylcellulose or other suitable vehicles. One to twenty-four hours following the administration of compound, animals are sacrificed, and brains as well as cerebrospinal fluid (CSF) and plasma are removed for analysis of A-beta levels and drug or test compound concentrations (Dovey et al., 2001, Journal of Neurochemistry, 76, 173-181) Beginning at time 0, animals are administered by oral gavage, or other means of delivery such as intravenous injection, an inhibitory test compound of up to 100 mg/kg in a standard, conventional formulation, such as 2% hydroxypropyl methylcellulose, 1% Tween80. A separate group of animals receive 2% hydroxypropyl methylcellulose, 1% Tween80 alone, containing no test compound, and serve as a vehicle-control group. At the end of the test period, animals are sacrificed and brain tissues, plasma or cerebrospinal fluid are collected. Brains are either homogenized in 10 volumes (w/v) of 0.2% diethylamine (DEA) in 50 mM NaCl (Best et al., 2005, Journal of Pharmacology and Experimental Therapeutics, 313, 902-908), or in 10 volumes of 0.5% TritonX-100 in Tris-buffered saline (pH at about 7.6). Homogenates are centrifuged at 355,000 g, 4° C. for 30 minutes. CSF or brain supernatants are then analyzed for the presence of A-beta peptide by specific sandwich ELISA assays based on ECL (Electrochemiluminescence) technology. For example, rat Abeta40 is measured using biotinylated-4G8 (Signet) as a capture antibody and Fab40 (an in-house antibody specific to the C-terminal of Abeta40) as a detection antibody. For example, 4 hours after administration of 30 mg/kg oral dose of the test compound in 2% hydroxypropyl methylcellulose, 1% Tween80 (pH2.2) to 200 g male Sprague Dawley rats, amyloid beta peptide levels are measured for reduction by X % and Y % in cerebrospinal fluid and brain, respectively, when compared to the levels measured in the vehicle-treated or control […].
Actual vehicles used: Oral: 2% HPMC, 1% Tween80, pH 2.2
• IV: 5% EtOH, 45% Propylene Glycol in 5% Dextrose
The compounds of the invention may be shown to reduce the formation and/or deposition of amyloid beta peptide in the cerebrospinal fluid (CSF) as well as in the brain of a mouse or rat at either 3 mpk, 10 mpk or 30 mpk (mpk=mg compound per kg weight of the animal) dosing concentrations after 4 hrs.

[3] = biological target: Beta Secretase enzyme (BACE) (Homo sapiens, UniProt P56817); test: In vitro enzymatic BACE FRET assay; type: biochemical; conditions: read-out: BACE1 FRET assay IC50
Outline: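 Enzyme (0.2 nM) pre-incubated 1 h with serially diluted inhibitors in 0.05 M acetate pH 4.2, 10% DMSO, 100 uM genapol. Reaction started with 50 nM fluorophore/quencher peptide FRET substrate, run 1 h, stopped with Tris to neutral pH. Fluorescence read at excitation 488 nm, […].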

[4] = biological target: Cathepsin D (Cat D) (Homo sapiens, UniProt P07339); test: In vitro enzymatic Cathepsin D (Cat D) FRET assay; type: biochemical
Outline: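 Recombinant CHO-expressed enzyme (9 nM) pre-incubated 1 h with serially diluted inhibitor in 0.05 M citrate pH 3.5, 10% DMSO final, 5 mM CHAPS. Reaction started with 20 nM FRET peptide substrate, run 1 h, stopped with Tris to neutral pH; fluorescence read at ex 500/em 580 nm.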

[5] = Homo sapiens, HEK293, average IC50, HEK cell assay, Aβ 40 readout
[6] = Abeta 40 in CSF of the rat, read-out: % reduction of rat CSF levels at 10 pmk
[7] = Abeta 40 in brain of the rat, read-out: % reduction of rat brain levels at 10 mpk
[8] = average IC50, in vitro enzymatic BACE FRET assay
[9] = Cathepsin D FRET assay, read-out: CatD IC50
[10] = text summary referring to data in Table 2
[11] = Homo sapiens, HEK293, HEK cell, average IC50

Sequence of Beta Secretase enzyme (BACE) (P56817 46-501): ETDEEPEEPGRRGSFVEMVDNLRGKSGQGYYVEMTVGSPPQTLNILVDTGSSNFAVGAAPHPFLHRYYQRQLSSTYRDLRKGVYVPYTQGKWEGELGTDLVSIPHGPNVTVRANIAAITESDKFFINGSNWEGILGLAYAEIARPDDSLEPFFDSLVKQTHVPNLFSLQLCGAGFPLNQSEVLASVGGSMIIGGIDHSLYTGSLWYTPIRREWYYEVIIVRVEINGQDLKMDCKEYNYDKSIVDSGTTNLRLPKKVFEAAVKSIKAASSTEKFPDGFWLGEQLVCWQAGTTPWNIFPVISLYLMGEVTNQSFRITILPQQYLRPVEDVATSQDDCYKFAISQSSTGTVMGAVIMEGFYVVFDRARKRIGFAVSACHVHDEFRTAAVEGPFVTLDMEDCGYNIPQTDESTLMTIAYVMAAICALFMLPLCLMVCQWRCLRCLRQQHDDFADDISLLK
Sequence of Cathepsin D (Cat D) (P07339 65-412, species assumed): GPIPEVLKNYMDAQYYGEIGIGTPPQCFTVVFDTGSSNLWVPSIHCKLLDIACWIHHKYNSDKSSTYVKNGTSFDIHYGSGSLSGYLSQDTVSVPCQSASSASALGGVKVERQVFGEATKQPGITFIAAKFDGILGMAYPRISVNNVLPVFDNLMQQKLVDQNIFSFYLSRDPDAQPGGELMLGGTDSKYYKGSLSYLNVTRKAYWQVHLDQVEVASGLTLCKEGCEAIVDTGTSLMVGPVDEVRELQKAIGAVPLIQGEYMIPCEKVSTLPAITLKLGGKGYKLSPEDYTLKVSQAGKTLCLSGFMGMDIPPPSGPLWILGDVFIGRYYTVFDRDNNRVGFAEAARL

Compound	IC50 [1, 5] [µM]	inhibition in vivo at 10 mg/kg [2, 6] [%]	inhibition in vivo at 10 mg/kg [2, 7] [%]	IC50 [3, 8] [µM]	IC50 [4, 9] [µM]	IC50 [4, 10] [µM]	IC50 [1, 11] [µM]	IC50 ([3]; average IC50) [µM]	IC50 ([4]; read-out: CatD IC50) [µM]	IC50 ([1]; HEK cell, average IC50) [µM]
C[C@H]1C[C@@H]2[C@](C)(N=C(N)C(C)(C)S2(=O)=O)c2cc(NC(=O)c3ccc(C(F)(F)F)cn3)ccc2O1 [Example 84, N-((4aR,6S,11bR)-2-amino-3,3,6,11b-tetramethyl-4,4-dioxido-4a,5,6,11b-tetrahydro-3H-[1]benzoxepino[4,5-b][1,4]thiazin-10-yl)-5-(trifluoromethyl)-2-pyridinecarboxamide]	0.004	70	68	0.012	2760	> 1200	–	–	–	–
CC1(C)C[C@@H]2[C@](C)(N=C(N)C(C)(C)S2(=O)=O)c2cc(Nc3ncnc4cc(C(F)(F)F)cnc34)ccc2O1 [Example 106, (4aR,11bR)-3,3,6,6,11b-pentamethyl-N^~10^~-(7-(trifluoromethyl)pyrido[3,2-d]pyrimidin-4-yl)-4a,5,6,11b-tetrahydro-3H-[1]benzoxepino[4,5-b][1,4]thiazine-2,10-diamine 4,4-dioxide]	0.009	36	36	0.017	505	–	–	–	–	–
COc1cnc(C(=O)Nc2ccc3c(c2)[C@@]2(C)N=C(N)C(C)(C)S(=O)(=O)[C@@H]2C[C@H](C)O3)cn1 [Example 55, N-((4aR,6S,11bR)-2-amino-3,3,6,11b-tetramethyl-4,4-dioxido-4a,5,6,11b-tetrahydro-3H-[1]benzoxepino[4,5-b][1,4]thiazin-10-yl)-5-methoxy-2-pyrazinecarboxamide]	–	74	70	–	–	–	0.004	0.009	650	–
C[C@H]1C[C@@H]2[C@](C)(N=C(N)C(C)(C)S2(=O)=O)c2cc(NC(=O)c3ccc(Cl)cn3)ccc2O1 [Example 85, N-((4aR,6S,11bR)-2-amino-3,3,6,11b-tetramethyl-4,4-dioxido-4a,5,6,11b-tetrahydro-3H-[1]benzoxepino[4,5-b][1,4]thiazin-10-yl)-5-chloro-2-pyridinecarboxamide]	0.003	79	78	0.004	607	–	–	–	–	–
C[C@H]1C[C@@H]2[C@](C)(N=C(N)C(C)(C)S2(=O)=O)c2cc(Nc3nccc4nc(OCc5ncco5)cnc34)ccc2O1 [Example 138, (4aR,6S,11bR)-3,3,6,11b-tetramethyl-N^~10^~-(2-(1,3-oxazol-2-ylmethoxy)pyrido[3,4-b]pyrazin-5-yl)-4a,5,6,11b-tetrahydro-3H-[1]benzoxepino[4,5-b][1,4]thiazine-2,10-diamine 4,4-dioxide]	0.001	46	38	0.004	173	–	–	–	–	–
C[C@H]1C[C@@H]2[C@](C)(N=C(N)C(C)(C)S2(=O)=O)c2cc(Nc3ncnc4cc(C(F)(F)F)cnc34)ccc2O1 [Example 133, (4aR,6S,11bR)-3,3,6,11b-tetramethyl-N^~10^~-(7-(trifluoromethyl)pyrido[3,2-d]pyrimidin-4-yl)-4a,5,6,11b-tetrahydro-3H-[1]benzoxepino[4,5-b][1,4]thiazine-2,10-diamine 4,4-dioxide]	0.005	63	51	0.01	427	–	–	–	–	–
C[C@H]1C[C@@H]2[C@](C)(N=C(N)C(C)(C)S2(=O)=O)c2cc(NC(=O)c3ncc(Cl)cc3Cl)ccc2O1 [Example 129, N-((4aR,6S,11bR)-2-amino-3,3,6,11b-tetramethyl-4,4-dioxido-4a,5,6,11b-tetrahydro-3H-[1]benzoxepino[4,5-b][1,4]thiazin-10-yl)-3,5-dichloro-2-pyridinecarboxamide]	0.002	21	18	0.003	567	–	–	–	–	–
C[C@H]1C[C@@H]2[C@](C)(N=C(N)C(C)(C)S2(=O)=O)c2cc(Nc3nccc4cc(C#N)cnc34)ccc2O1 [Example 56, 8-(((4aR,6S,11bR)-2-amino-3,3,6,11b-tetramethyl-4,4-dioxido-4a,5,6,11b-tetrahydro-3H-[1]benzoxepino[4,5-b][1,4]thiazin-10-yl)amino)-1,7-naphthyridine-3-carbonitrile]	–	70	61	–	–	–	0.001	0.002	544	–
Cc1cc(Cl)cnc1C(=O)Nc1ccc2c(c1)[C@@]1(C)N=C(N)C(C)(C)S(=O)(=O)[C@@H]1CCS2 [Example 114, N-((4aR,11bR)-2-amino-3,3,11b-trimethyl-4,4-dioxido-4a,5,6,11b-tetrahydro-3H-[1]benzothiepino[4,5-b][1,4]thiazin-10-yl)-5-chloro-3-methyl-2-pyridinecarboxamide]	0.012	–	–	0.001	292	–	–	–	–	–
Cc1cc(C#N)cnc1C(=O)Nc1ccc2c(c1)[C@@]1(C)N=C(N)C(C)(C)S(=O)(=O)[C@H]1CCC2 [Example 37, N-((4aS,11bR)-2-amino-3,3,11b-trimethyl-4,4-dioxido-3,4a,5,6,7,11b-hexahydrobenzo[3,4]cyclohepta[1,2-b][1,4]thiazin-10-yl)-5-cyano-3-methyl-2-pyridinecarboxamide]	–	–	–	–	–	–	0.016	0.036	> 400	–
CC1(C)C(N)=N[C@]2(C)c3cc(NC(=O)c4ccc(OCC#N)cn4)ccc3OCC[C@H]2S1(=O)=O [Example 126, N-((4aR,11bR)-2-amino-3,3,11b-trimethyl-4,4-dioxido-4a,5,6,11b-tetrahydro-3H-[1]benzoxepino[4,5-b][1,4]thiazin-10-yl)-5-(cyanomethoxy)-2-pyridinecarboxamide]	0.034	–	–	0.017	> 1.65	–	–	–	–	–
CC1(C)C(N)=N[C@]2(C)c3cc(NC(=O)c4cc5ccccc5cn4)ccc3OCC[C@H]2S1(=O)=O [Example 30, N-((4aR,11bR)-2-amino-3,3,11b-trimethyl-4,4-dioxido-4a,5,6,11b-tetrahydro-3H-[1]benzoxepino[4,5-b][1,4]thiazin-10-yl)-3-isoquinolinecarboxamide]	–	–	–	–	–	> 1200	0.058	0.084	1080	–
COc1cnc(C(=O)Nc2cnc3c(c2)[C@@]2(C)N=C(N)C4(CCC4)S(=O)(=O)[C@@H]2CCO3)c(C)c1 [Example 64, N-((4a′R,11b′R)-2′-amino-1113′-methyl-4′,4′-dioxido-4a′,5′,6′,11b′-tetrahydrospiro[cyclobutane-1,3′-pyrido[3′,2′:6,7]oxepino[4,5-b][1,4]thiazin]-10′-yl)-5-methoxy-3-methyl-2-pyridinecarboxamide]	–	–	–	–	–	–	–	0.059	> 400	0.184
